Measured values from patent US20240075050A1, “Methods and Compositions for Treating Leucine Rich Repeat Kinase 2 (LRRK2)-Associated Disorder or Condition” (University of Connecticut, priority 2022, published 2024).

How the values were obtained:
[1] = test system: LRRK2-G2019S transgenic flies; experiment: LRRK2-induced DA neurodegeneration in LRRK2-G2019S transgenic Drosophila; type: in vivo; details: 9-week-old flies, fly food with 1 mM AICAr from posteclosion
From the text: Administration of AICAr into LRRK2 Drosophila. Ddc-GAL4 and UAS-GFP fly lines were obtained from Bloomington Stock Center. pUAST-attB-LRRK2 WT and G2019S were microinjected into Drosophila embryos (BestGene Inc.)^30. The resulting transgenic flies were crossed with Ddc-GAL4>UAS-GFP, which induces the co-expression of GFP, […] LRRK2 in dopamine and serotonin neurons. To study the effects of AICAr on LRRK2-induced dopaminergic neurodegeneration, flies were fed with regular fly food supplemented with 1 mM AICAr immediately at the posteclosion until 9-week-old.

[2] = test system: DA neurons in substantia nigra pars compacta; experiment: LPS-induced DA neurodegeneration in mice, TH-positive neurons in SNpc; type: in vivo, mouse; details: 21 days
Description: Stereotaxic intracranial injection. Three days before survival surgery, osmotic pumps (ALZET, 1004) were filled with saline, 1 mg/ml or 30 mg/ml AICAr in saline, assembled with brain infusion kits (ALZET, Brain Infusion Kit 2), and incubated in saline at 37° C. 3-month-old mice were anesthetized by isoflurane gas supplemented with 0.5 L/min oxygen. A ˜1.5 cm incision was made midline on the scalp. For mouse striatum injection, one hole was drilled at the following coordinates: anterioposterior=+0.5 mm from bregma; lateral=−2.0 mm from bregma; dorsoventral=−3.5 mm. For mouse substantia nigra pars compacta (SNpc) injection, one hole was drilled at the following coordinates: anterioposterior=−3.2 mm from bregma; lateral=−1.2 mm from bregma; dorsoventral=−4.2 mm. 1 ul LPS (5 ug) or PBS was injected at a rate of 0.2 ul/min using a Hamilton syringe with a 26-gauge blunt needle. […]
Immunohistochemistry. […] After antigen retrieval with 10 mM sodium citrate (pH 6.0) and 0.05% Tween-20 at 37° C. for 30 minutes, brain sections were washed in PBS for three times, permeabilized with 0.3% Triton X-100 in PBS, blocked with 10% goat serum in PBS, incubated with anti-tyrosine hydroxylase (TH) antibody overnight at 4° C., and then detected with Biotin-SP goat anti-rabbit IgG antibody at room temperature for 2 hours. […]
Stereological cell counting. […] Total cells were counted from 8 serial sections per animal.

Structure (SMILES): NC(=O)c1ncn([C@@H]2O[C@H](CO)[C@@H](O)[C@H]2O)c1N [AICAr, 5-aminoimidazole-4-carboxamide riboside]
- LRRK2-GS induced DA neurodegeneration (DA neuron numbers) [1]: rescued
- LPS-induced neurodegeneration ([2]; LRRK2 KO mice, AICAr 2.4 μg/day/animal into SNpc): did not significantly rescue
- LPS-induced DA neurodegeneration ([2]; WT mice, AICAr 2.4 μg/day/animal into SNpc by osmotic pumps): significantly reduced
